From US9040701B2, “Apaf-1 inhibitor compounds” (LABORATORIOS SALVAT, S.A., priority 2009, dated 2015)

biological target: T1, Recombinant Apaf-1 produced in insect cells (rApaf-1) (Homo sapiens, UniProt O14727); assay: In vitro apoptosome formation inhibition assay; type: biochemical; details: compound at 10 μM; rApaf-1 40 nM, dATP/Mg 100 μM, horse cytochrome c 0.1 μM, rprocaspase-9 0.1 μM; caspase-9 substrate Ac-LEDH-afc, afc release at 37° C.
T1 construct: made in house; host or cells: insect cells (Apaf-1); E. coli (procaspase-9); cytochrome c purchased from Sigma
T1 sequence (O14727 1-1248): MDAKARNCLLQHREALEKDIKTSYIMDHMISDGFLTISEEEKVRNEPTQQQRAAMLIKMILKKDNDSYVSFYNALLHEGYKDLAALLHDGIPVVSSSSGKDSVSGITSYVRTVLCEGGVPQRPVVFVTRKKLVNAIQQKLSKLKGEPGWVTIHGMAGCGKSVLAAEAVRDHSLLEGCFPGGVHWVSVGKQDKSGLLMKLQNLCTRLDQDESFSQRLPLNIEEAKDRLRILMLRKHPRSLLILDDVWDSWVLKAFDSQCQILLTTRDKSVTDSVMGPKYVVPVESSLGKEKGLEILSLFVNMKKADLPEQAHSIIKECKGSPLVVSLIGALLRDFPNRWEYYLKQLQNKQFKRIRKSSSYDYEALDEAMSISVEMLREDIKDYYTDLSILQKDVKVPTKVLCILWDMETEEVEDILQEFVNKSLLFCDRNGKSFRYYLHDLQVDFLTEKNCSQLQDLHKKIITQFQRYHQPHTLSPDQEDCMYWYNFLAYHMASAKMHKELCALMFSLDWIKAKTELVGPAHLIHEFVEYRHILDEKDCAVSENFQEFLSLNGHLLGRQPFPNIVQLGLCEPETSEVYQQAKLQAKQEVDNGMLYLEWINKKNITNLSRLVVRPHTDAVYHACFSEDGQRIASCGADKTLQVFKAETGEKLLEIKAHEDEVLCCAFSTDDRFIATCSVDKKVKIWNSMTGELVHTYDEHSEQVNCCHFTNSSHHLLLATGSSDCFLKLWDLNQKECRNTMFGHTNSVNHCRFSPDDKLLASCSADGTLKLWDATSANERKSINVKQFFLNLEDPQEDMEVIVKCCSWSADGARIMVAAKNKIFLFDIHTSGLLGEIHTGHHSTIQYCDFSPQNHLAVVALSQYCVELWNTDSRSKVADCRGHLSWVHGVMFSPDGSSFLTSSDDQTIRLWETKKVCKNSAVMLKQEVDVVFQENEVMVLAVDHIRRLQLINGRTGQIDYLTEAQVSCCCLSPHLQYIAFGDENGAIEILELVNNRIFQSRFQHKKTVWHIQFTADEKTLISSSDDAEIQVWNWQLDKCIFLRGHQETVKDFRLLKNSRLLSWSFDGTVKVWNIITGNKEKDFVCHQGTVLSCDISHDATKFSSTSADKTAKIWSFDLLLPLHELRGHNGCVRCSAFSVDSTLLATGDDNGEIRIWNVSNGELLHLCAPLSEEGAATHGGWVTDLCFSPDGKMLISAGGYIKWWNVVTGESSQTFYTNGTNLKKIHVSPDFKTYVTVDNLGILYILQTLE
Procedure: Recombinant Apaf-1 produced in insect cells (rApaf-1) was incubated in the presence (at a concentration of 10 μM) or absence (as control) of the compounds to be evaluated in the assay buffer (20 mM Hepes-KOH pH 7.5, 10 mM KCl, 1.5 mM MgCl2, 1 mM EDTA, 1 mM EGTA, 1 mM DTT, 0.1 mM PMSF) for 15 minutes at 30° C. The final rApaf-1 concentration was 40 nM. dATP/Mg (Sigma) and purified horse cytochrome c (Sigma) were then added achieving final concentrations of 100 μM and 0.1 μM, respectively. It was incubated for 60 minutes at 30° C. and recombinant procaspase-9 produced in E. coli (rprocaspase-9, final concentration 0.1 μM) was then added and it was incubated for 10 minutes at 30° C. before adding the caspase-9 fluorogenic substrate Ac-LEDH-afc (final concentration 50 μM). The total assay volume was 200 μL. The caspase activity was continuously monitored by means of the afc release at 37° C. in a Wallac 1420 Workstation (λexc=390 nm, λem=510 nm).
The activity values of some compounds described in the examples are indicated in the following table expressed as the percentage of Apaf-1 inhibition.

| inhibition at 10 µM | SMILES |
| --- | --- |
| 80% | NCCCCC(NC(=O)CN(CCc1ccc(Cl)cc1Cl)C(=O)CC1C(=O)N(CCc2ccc(Cl)cc2Cl)CC(=O)N1CCC(c1ccccc1)c1ccccc1)C(N)=O (stereo not shown) [If.1.2, 6-amino-2-(2-(N-(2,4-dichlorophenethyl)-2-(4-(2,4-dichlorophenethyl)-1-(3,3-diphenylpropyl)-3,6-dioxopiperazin-2-yl)acetamido)acetamido)hexanamide] |
| 40% | COc1ccc2[nH]cc(CCN3C(=O)CN(CCc4ccc(Cl)cc4Cl)C(=O)C3CC(=O)NCCc3ccc(Cl)cc3Cl)c2c1 (stereo not shown) [Id.5.2, N-(2,4-dichlorophenethyl)-2-(4-(2,4-dichlorophenethyl)-1-(2-(5-methoxy-1H-indol-3-yl)ethyl)-3,6-dioxopiperazin-2-yl)acetamide] |
| 29% | NC(=O)CN(CCc1ccc(Cl)cc1Cl)C(=O)CC1C(=O)N(CCc2ccc(Cl)cc2Cl)CC(=O)N1CCc1ccc(-c2ccccc2)cc1 (stereo not shown) [Ia.6.2, 2-(1-(2-([1,1′-biphenyl]-4-yl)ethyl)-4-(2,4-dichlorophenethyl)-3,6-dioxopiperazin-2-yl)-N-(2-amino-2-oxoethyl)-N-(2,4-dichlorophenethyl)acetamide] |
| 72% | O=C(O)CN(CCc1ccc(Cl)cc1Cl)C(=O)CC1C(=O)N(CCc2ccc(Cl)cc2Cl)CC(=O)N1CCC(c1ccccc1)c1ccccc1 (stereo not shown) [Ib.1.2, 2-(N-(2,4-dichlorophenethyl)-2-(4-(2,4-dichlorophenethyl)-1-(3,3-diphenylpropyl)-3,6-dioxopiperazin-2-yl)acetamido) acetic acid] |
| 48% | O=C(O)CN(CCc1ccc(Cl)cc1Cl)C(=O)CC1C(=O)N(CCc2ccc(Cl)cc2Cl)CC(=O)N1CCc1c[nH]c2ccccc12 (stereo not shown) [Ib.3.2, 2-(2-(1-(2-(1H-indol-3-yl)ethyl)-4-(2,4-dichlorophenethyl)-3,6-dioxopiperazin-2-yl)-N-(2,4-dichlorophenethyl)acetamido) acetic acid] |
| 23% | COC(=O)CN(CCc1ccc(Cl)cc1Cl)C(=O)CC1C(=O)N(CCc2ccc(Cl)cc2Cl)CC(=O)N1CCc1c[nH]c2ccc(OC)cc12 (stereo not shown) [Ic.5.2, Methyl 2-(N-(2,4-dichlorophenethyl)-2-(4-(2,4-dichlorophenethyl)-1-(2-(5-methoxy-1H-indol-3-yl)ethyl)-3,6-dioxopiperazin-2-yl)acetamido)acetate] |
| 36% | CCC(C)N(CC(N)=O)C(=O)CC1C(=O)N(CCc2ccc(Cl)cc2Cl)CC(=O)N1CCC(c1ccccc1)c1ccccc1 (stereo not shown) [I.1.20, N-(2-amino-2-oxoethyl)-N-(sec-butyl)-2-(4-(2,4-dichlorophenethyl)-1-(3,3-diphenylpropyl)-3,6-dioxopiperazin-2-yl)acetamide] |
| 46% | NC(=O)CN(CCc1ccccn1)C(=O)CC1C(=O)N(CCc2ccc(Cl)cc2Cl)CC(=O)N1CCC(c1ccccc1)c1ccccc1 (stereo not shown) [I.1.16, N-(2-amino-2-oxoethyl)-2-(4-(2,4-dichlorophenethyl)-1-(3,3-diphenylpropyl)-3,6-dioxopiperazin-2-yl)-N-(2-(pyridin-2-yl)ethyl)acetamide] |
| 29% | COC(=O)CN(CCc1ccc(Cl)cc1Cl)C(=O)CC1C(=O)N(CCc2ccc(Cl)cc2Cl)CC(=O)N1CCc1c[nH]c2ccccc12 (stereo not shown) [Ic.3.2, Methyl 2-(2-(1-(2-(1H-indol-3-yl)ethyl)-4-(2,4-dichlorophenethyl)-3,6-dioxopiperazin-2-yl)-N-(2,4-dichlorophenethyl)acetamido)acetate] |
| 28% | O=C(O)CN(CCc1ccc(Cl)cc1Cl)C(=O)CC1C(=O)N(CCc2ccc(Cl)cc2Cl)CC(=O)N1Cc1ccc(F)cc1 (stereo not shown) [Ib.2.2, 2-(N-(2,4-dichlorophenethyl)-2-(4-(2,4-dichlorophenethyl)-1-(4-fluorobenzyl)-3,6-dioxopiperazin-2-yl)acetamido) acetic acid] |
